The subject of the test is L1210 leukemia ip in BDF1 mice, survival T/C. Nature of the test: NCI In Vivo Anticancer Drug Screen. Data for tumor model L1210 Leukemia (intraperitoneal) in B6D2F1 (BDF1) mice. Conditions: endpoint: mean survival time, higher = longer survival. In a few lines: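 Value reflects the ratio of survival in compound-treated mice to survival in vehicle-treated controls, with both groups carrying the same transplanted tumor.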

Where [1] appears, read: dose: 100.0 mg/kg/injection, schedule: Q04DX003 (ip), vehicle: Klucel (hydroxypropylcellulose) (HPC).
The mark [2] stands for this setting: dose: 200.0 mg/kg/injection, schedule: Q04DX003 (ip), vehicle: Klucel (hydroxypropylcellulose) (HPC).
The mark [3] stands for this setting: dose: 400.0 mg/kg/injection, schedule: Q04DX003 (ip), vehicle: Klucel (hydroxypropylcellulose) (HPC).
Setting [4] is: dose: 100.0 mg/kg/injection, schedule: Q01DX009 (ip), vehicle: saline with Tween-80.
Setting [5] is: dose: 200.0 mg/kg/injection, schedule: Q01DX009 (ip), vehicle: saline with Tween-80.

Here are results for 13 molecules from PubChem BioAssay AID248 (DTP/NCI, 2004).

“And” between values parts separate entries of the source, which are not always exact repeats. Identical values can stand only once. Inconclusive results and toxic doses are left out.

Take `OCC1OC(c2[nH]nc3c([Se])ncnc23)C(O)C1O` (stereo not drawn): the T/C by setting is: (dose: 1.56 mg/kg/injection, schedule: Q01DX005 (ip), vehicle: saline) 95 % of control; (dose: 1.56 mg/kg/injection, schedule: Q01DX009 (ip), vehicle: saline) 95 % of control; (dose: 3.12 mg/kg/injection, schedule: Q01DX005 (ip), vehicle: saline) 97 % of control; (dose: 3.12 mg/kg/injection, schedule: Q01DX009 (ip), vehicle: saline) 100 % of control; (dose: 6.25 mg/kg/injection, schedule: Q01DX005 (ip), vehicle: saline) 99 % of control; (dose: 6.25 mg/kg/injection, schedule: Q01DX009 (ip), vehicle: saline) 97 % of control. Besides, the T/C (dose: 12.5 mg/kg/injection, schedule: Q01DX009 (ip), vehicle: saline) was 90 % of control.

Consider `O=C(Nc1ccc(F)c(Cl)c1)Oc1cc(=O)oc2ccccc12`, for which the T/C under setting [1] was 92 % of control, the T/C under setting [2] is 101 % of control and the T/C under setting [3] was 105 % of control.

Take `COc1ccc(C(=O)Nc2ccc(C)c(Cl)c2)cc1`: the T/C was 115 % of control (dose: 100.0 mg/kg/injection, schedule: Q04DX002 (ip), vehicle: Klucel (hydroxypropylcellulose) (HPC)); 115 % of control (dose: 200.0 mg/kg/injection, schedule: Q04DX002 (ip), vehicle: Klucel (hydroxypropylcellulose) (HPC)); 112 % of control (dose: 400.0 mg/kg/injection, schedule: Q04DX002 (ip), vehicle: Klucel (hydroxypropylcellulose) (HPC)).

`Nc1ccc(S(=O)(=O)F)cc1N`: the T/C is 101 % of control (dose: 100.0 mg/kg/injection, schedule: Q01DX001 (ip), vehicle: acetone); 96 % of control (dose: 100.0 mg/kg/injection, schedule: Q01DX009 (ip), vehicle: acetone); 101 % of control (dose: 200.0 mg/kg/injection, schedule: Q01DX001 (ip), vehicle: acetone); 93 % of control (dose: 200.0 mg/kg/injection, schedule: Q01DX009 (ip), vehicle: acetone); 103 % of control (dose: 400.0 mg/kg/injection, schedule: Q01DX001 (ip), vehicle: acetone).

`O=[N+]([O-])c1cccc2c1C1c3ccccc3C2c2ccccc21`: the T/C is 93 % of control (dose: 50.0 mg/kg/injection, schedule: Q01DX001 (ip), vehicle: carboxymethylcellulose (CMC)); 93 % of control (dose: 100.0 mg/kg/injection, schedule: Q01DX001 (ip), vehicle: carboxymethylcellulose (CMC)); 96 % of control (dose: 200.0 mg/kg/injection, schedule: Q01DX001 (ip), vehicle: carboxymethylcellulose (CMC)); 96 % of control (dose: 400.0 mg/kg/injection, schedule: Q01DX001 (ip), vehicle: carboxymethylcellulose (CMC)).

Take `CCOP(=S)(OCC)SC(C)c1ccccc1` (stereo not drawn): the T/C runs as follows: (dose: 50.0 mg/kg/injection, schedule: Q01DX009 (ip), vehicle: saline with Tween-80) 95 % of control; under setting [4], 91 % of control; under setting [5], 100 % of control.

As for `C/C(=N/N(C)C)c1ccc(C#N)cc1`, the T/C was 112 % of control (dose: 100.0 mg/kg/injection, schedule: Q01DX001 (ip), vehicle: Klucel (hydroxypropylcellulose) (HPC)); 113 % of control (dose: 200.0 mg/kg/injection, schedule: Q01DX001 (ip), vehicle: Klucel (hydroxypropylcellulose) (HPC)); 105 % of control (dose: 400.0 mg/kg/injection, schedule: Q01DX001 (ip), vehicle: Klucel (hydroxypropylcellulose) (HPC)).

On to `CC(=O)OC1CCC(C(C)(C)C)CC1` (stereo not drawn), for which the T/C reads like this: under setting [4], 98 % of control; under setting [5], 95 % of control.

With `C[N+]1(CCCNC2=CC(=O)C=CC2=O)CCCC1`, the T/C (dose: 0.5 mg/kg/injection, schedule: Q01DX001 (ip), vehicle: saline) is 108 % of control.

As to `CCOC(=O)C1C(=O)C(C(=O)Nc2ccccc2)C(=O)C(C(=O)OCC)C1c1ccc(O)cc1` (stereo not drawn), the T/C (dose: 100.0 mg/kg/injection, schedule: Q01DX001 (ip), vehicle: other) was 91 % of control and 97 % of control; the T/C under setting [4] is 102 % of control and 100 % of control; the T/C (dose: 100.0 mg/kg/injection, schedule: Q04DX003 (ip), vehicle: saline with Tween-80) was 103 % of control and 97 % of control; the T/C (dose: 200.0 mg/kg/injection, schedule: Q01DX001 (ip), vehicle: other) is 94 % of control and 91 % of control; the T/C under setting [5] was 96 % of control and 100 % of control; the T/C (dose: 200.0 mg/kg/injection, schedule: Q04DX003 (ip), vehicle: saline with Tween-80) was 97 % of control. Further, the T/C is, setting by setting: (dose: 400.0 mg/kg/injection, schedule: Q01DX009 (ip), vehicle: saline with Tween-80) 100 % of control and 101 % of control; (dose: 400.0 mg/kg/injection, schedule: Q04DX003 (ip), vehicle: saline with Tween-80) 97 % of control and 96 % of control.

For `NCCCC(NC(=O)CCCCCCCCN=C(N)N)C(O)CCCCCCCCN=C(N)N` (stereo not drawn), the T/C reads like this: (dose: 0.38 mg/kg/injection, schedule: Q01DX Z (ip), vehicle: carboxymethylcellulose (CMC)) 102 % of control; (dose: 0.75 mg/kg/injection, schedule: Q01DX Z (ip), vehicle: carboxymethylcellulose (CMC)) 94 % of control; (dose: 1.5 mg/kg/injection, schedule: Q01DX Z (ip), vehicle: carboxymethylcellulose (CMC)) 96 % of control; (dose: 3.0 mg/kg/injection, schedule: Q01DX Z (ip), vehicle: carboxymethylcellulose (CMC)) 107 % of control; (dose: 5.0 mg/kg/injection, schedule: Q01DX001 (ip), vehicle: carboxymethylcellulose (CMC)) 94 % of control; (dose: 6.0 mg/kg/injection, schedule: Q01DX Z (ip), vehicle: carboxymethylcellulose (CMC)) 121 % of control. Further, the T/C is 100 % of control (dose: 10.0 mg/kg/injection, schedule: Q01DX001 (ip), vehicle: carboxymethylcellulose (CMC)) and 103 % of control (dose: 20.0 mg/kg/injection, schedule: Q01DX001 (ip), vehicle: carboxymethylcellulose (CMC)).

Regarding `OCc1cc2ccccc2cc1O`, the T/C (dose: 100.0 mg/kg/injection, schedule: Q01DX009 (ip), vehicle: Klucel (hydroxypropylcellulose) (HPC)) was 97 % of control; the T/C under setting [1] is 97 % of control; the T/C (dose: 200.0 mg/kg/injection, schedule: Q01DX009 (ip), vehicle: Klucel (hydroxypropylcellulose) (HPC)) was 106 % of control; the T/C under setting [2] is 94 % of control; the T/C (dose: 400.0 mg/kg/injection, schedule: Q01DX009 (ip), vehicle: Klucel (hydroxypropylcellulose) (HPC)) was 108 % of control; the T/C under setting [3] was 89 % of control.

As for `CS(=O)(=O)OCC(=O)NCCCNC(=O)COS(C)(=O)=O`, the T/C was 123 % of control (dose: 17.5 mg/kg/injection, schedule: Q01DX013 (ip), vehicle: other); 122 % of control (dose: 18.8 mg/kg/injection, schedule: Q01DX015 (ip), vehicle: saline); 121 % of control (dose: 35.0 mg/kg/injection, schedule: Q01DX013 (ip), vehicle: other); 166 % of control (dose: 54.0 mg/kg/injection, schedule: Q01DX009 (ip), vehicle: saline); 155 % of control (dose: 75.0 mg/kg/injection, schedule: Q01DX015 (ip), vehicle: saline); 175 % of control (dose: 80.0 mg/kg/injection, schedule: Q01DX009 (ip), vehicle: saline). Besides, the T/C was 202 % of control (dose: 120.0 mg/kg/injection, schedule: Q01DX009 (ip), vehicle: saline); 150 % of control (dose: 150.0 mg/kg/injection, schedule: Q01DX015 (ip), vehicle: saline); 164 % of control and 195 % of control (dose: 180.0 mg/kg/injection, schedule: Q01DX009 (ip), vehicle: saline); 118 % of control (dose: 256.0 mg/kg/injection, schedule: Q01DX009 (ip), vehicle: saline).
